Experimental data from patent publication US11116799B2, “Generation of uniform hepatocytes from human embryonic stem cells by inhibiting TGF-beta and methods of maintaining hepatic cultures” (Wisconsin Alumni Research Foundation, priority 2016, dated 2021).
Values belong to the molecule of their own block, whether it stands above or below them.

Experiments:
[1] = system: primary mouse hepatocytes; test: RNA-Seq gene expression in primary mouse hepatocytes treated with kinase inhibitors; conditions: 10 μM, 72 hours
From the text: The next step was to determine if the PI3/Akt and MAPK pathways are involved in maintenance of hepatocyte maturation. We investigated whether small molecule inhibition of these pathways would mimic let-7's action and reduce the loss of mature function of hepatocytes in culture after removal from their microenvironment. […] Then, expression of the top ten important metabolic enzymes (CYPs, UGTs and transporters) by RNA-Seq with uncultured fresh hepatocytes and control vehicle hepatocytes treated for 72 hours was compared.
Hepatocytes from 6 black mice livers were isolated by perfusion following standard protocol and cultured on Matrigel coated plates in hepatocyte growth medium (Promocell). Whole developing livers from 6 black mice were used for RNA isolation with Trizol for let-7c measurements.
Total RNA (including microRNA) from all cells, which were not mentioned otherwise, were isolated using RNAeasy Plus Kit […] following manufacturers protocol. RNA-Seq was performed by LM-Seq (Illumina). MicroRNAs were sequenced using Illumina's small RNA sequencing kit. Expression of let-7 and U6 snoRNA were measured by quantitative PCR using ABI's kit. Let-7c expression levels were normalized by U6 snoRNA expression (RQ or relative quantity values, error bars representing standard error, RQ min and RQ max).
Multiple batches of cryopreserved induction qualified human hepatocytes (each batch being from one donor) were purchased from Life Technologies and cultured on Matrigel coated plates in hepatocyte growth medium (PromoCell). For dedifferentiation studies, hepatocytes from batches Hu4260, Hu8135, Hu4279 and Hu8137 were used after mixing equal number of live cells. For small molecule treatments, batch Hu4260 was used. Mouse hepatocytes were isolated from Black 6 mice livers by perfusion following standard protocol and cultured on Matrigel coated plates in hepatocyte growth medium (Promocell).
Total RNA were isolated using RNAeasy Plus Kit (Qiagen) following manufacturers protocol and qualified with the Life Technologies Qubit fluorometer and Agilent Bioanalyzer. […] Final indexed cDNA libraries were pooled and sequenced on an Illumina HiSeq 2500. Base-calling and demultiplexing were performed using Casava (v1.8.2). Sequences were filtered and trimmed to remove low quality reads, adapters, and other sequencing artifacts. The remaining reads were aligned to a reference database comprising only RefSeq-validated transcripts (i.e., assigned an “NM_” accession). Mouse samples were aligned to the mm10 assembly, and human samples were aligned to the hg19 assembly. […] Reads with more than 200 alignments were excluded from further analysis. […] All RNA-seq results have been deposited at NCBI's GEO under Accession No. GSE94353.
The inventors next investigated whether the MAPK and PI3/Akt pathways contributed to the dedifferentiation of hepatocytes. […] Rapamycin was included as a control, which is an inhibitor of the mTOR pathway, a serine/threonine kinase involved in cell signaling not identified as a key pathway in our analysis.

[2] = system: H9-ALB-GFP/AFP-Tomato (dual clone 1) derived hepatocytes; test: RNA-Seq of ES-derived hepatocytes treated with Stauprimide; format: cell-based, human; set-up: HNF4A RNA-Seq expression / ADH4 RNA-Seq expression / BAAT RNA-Seq expression / SERPINC1 RNA-Seq expression / SERPINA1 RNA-Seq expression / ALB RNA-Seq expression / AFP RNA-Seq expression / UGT1A9 RNA-Seq expression / UGT1A1 RNA-Seq expression / UGT1A6 RNA-Seq expression: unit not given here; conditions: dual clone 1 ES-derived hepatocytes (CDI), 72 hrs
Method: The effects of Stauprimide in maturation of ES-derived hepatocytes was validated by RNA-Seq as described above. Briefly, the H9-ALB-GFP/AFP-Tomato (dual clone 1) were differentiated to a pure population of hepatocytes by CDI (Madison, Wis.) and treated with Stauprimide for 72 hours. […] Thus, Stauprimide is able to increase expression of mature hepatocyte genes and reduce the expression of the fetal marker AFP.

[3] = system: hepatocytes; test: Robotic compound screen for albumin and AFP expression in hepatocytes; format: cell-based
Method: A robotic screen was performed to determine compounds that increase expression of albumin in hepatocytes as an indicator that the compounds play a role in hepatocyte maturation. 1200 compounds were screened and 400 compounds analyzed for their effects on hepatocytes with regard to the levels of albumin and fetal marker AFP.

[4] = system: H9-ALB-GFP/AFP-Tomato (dual clone 1); test: Gene expression of hepatocytes differentiated from ES cells with 3 or 18 days of Activin A; format: cell-based, human; set-up: scale not given here; conditions: dual clone 1 hepatocytes, unsorted
Method: The H9-ALB-GFP/AFP-Tomato (dual clone 1) were differentiated to hepatocytes using the protocol depicted in FIG. 4. Either 3 day or 18 days of Activin A treatment was used with the rest of the protocol being the same. The cells were not sorted and differentiated for 18 and 33 days (for 3 and 18 day DE respectively).
ES cells were cultured in E8 medium (Reference 2) and were differentiated to hepatocytes following a previously published protocol (Reference 1) with modifications. Briefly, at approximately 50% confluency the ES cells were singularized by accutase and seeded on matrigel coated plate in E6 medium containing 100 ng/ml Activin A (Sigma). They were cultured in the Activin A medium for seven days. From day 8 to day 12 the cells were treated with 25 ng/ml FGF4 (R&D Systems) along with 20 ng/ml BMP2 in E6. During days 13 through 17 the cells were treated with 20 ng/ml HGF (R&D Systems) and 10 ng/ml Oncostatin M (R&D Systems) in E6. Finally, the cells were cultured in E6 containing 0.1 μM Dexamethasone (Sigma) from day 18 to day 22. From day 8 onwards, SB431542 and DAPT were added to the medium to inhibit TGFB and NOTCH respectively at 10 μM final concentration.

[5] = system: primary human hepatocytes (PHHs); test: RNA-Seq gene expression in MAPK inhibitor treated primary human hepatocytes; format: cell-based
Method: […]. […] […].
For small RNA-Seq profiling, hepatocytes from Hu8082 were used; for de-differentiation time course and let-7c transduction, hepatocytes from Hu4260, Hu8135, Hu4279 and Hu8137 were used. For both experiments, cells from all 4 donors were mixed in equal numbers after assessment of viability. For small molecule treatments, batch Hu4260 was used.
RNA-Seq was performed by LM-Seq (Illumina).
For small molecule treatments, batch Hu4260 was used.
. To ascertain that the increase in metabolic enzymes took place through specific MAPK inhibition, PHHs were treated with a second MAPK inhibitor, PD0325901, for 72 hours, followed by RNA-Seq analysis (Supplementary Table 4). […].

[6] = system: HepG2 cells; test: HepG2 viability / cell growth (cell counting by dye exclusion); format: cell-based, human; conditions: HepG2, 72 hours, compared to vehicle control
Method: CYP2C9 and 3A4 metabolism were measured using CYP450 Glo assay (Promega). In short, substrates were added to the media and incubated for 72 hours and the amount of metabolites generated were measured by adding the detection reagent and quantifying the luminescence in a Tecan® plate reader. Background was measured by incubating the substrates for 72 hours in the same media without cells. Cell counting for proliferation assay was carried out by dye exclusion in an automated cell counter (ThermoFisher).

[7] = 3 day Activin A (DE), differentiated 18 days
[8] = 18 day Activin A (DE), differentiated 33 days
[9] = primary human hepatocytes, treated 72 hours

CYP1A2 gene expression [1]: 80.54 transcripts per million
CYP2C9 gene expression [1]: 1332.65 transcripts per million
CYP2E1 gene expression [1]: 57.37 transcripts per million
CYP3A11 gene expression [1]: 1409.71 transcripts per million
CYP3A25 gene expression [1]: 61.42 transcripts per million
Molecule: O=c1cc(N2CCOCC2)oc2c(-c3ccccc3)cccc12 [LY294002]
ABCC2 gene expression [1]: 232.34 transcripts per million
UGT1A6A gene expression [1]: 48.21 transcripts per million
UGT1A9 gene expression [1]: 15.27 transcripts per million
UGT1A10 gene expression [1]: 0.86 transcripts per million
UGT2B5 gene expression [1]: 196.44 transcripts per million

Molecule: CO[C@@H]1[C@H](N(C)C(=O)c2ccccc2)C[C@H]2O[C@]1(C)n1c3ccccc3c3c4c(c5c6ccccc6n2c5c31)C(=O)NC4=O [Stauprimide]
ADH4 RNA-Seq expression [2]: 12.82
AFP RNA-Seq expression [2]: 2485.61
ALB RNA-Seq expression [2]: 8513.48
BAAT RNA-Seq expression [2]: 10.4
CYP2D6 RNA-Seq expression [2]: 0 TPM
CYP2E1 RNA-Seq expression [2]: 9.6 TPM
HNF4A RNA-Seq expression [2]: 25.97
SERPINA1 RNA-Seq expression [2]: 10030.14
SERPINC1 RNA-Seq expression [2]: 42.45
UGT1A1 RNA-Seq expression [2]: 322.35
UGT1A6 RNA-Seq expression [2]: 411.32
UGT1A9 RNA-Seq expression [2]: 47.42
CYP1A1 RNA-Seq expression ([2]; in TPM): 47.04
CYP2C9 RNA-Seq expression ([2]; in TPM): 19.63
expression of AFB [3]: did not increase expression
expression of albumin [3]: increased expression

Molecule: Activing A: Activin A, growth factor used to differentiate pluripotent stem cells to definitive endoderm
AFP gene expression [4, 7]: 1663.62
ALB gene expression [4, 7]: 600.43
CYP1A1 gene expression [4, 7]: 23.85
CYP2C9 gene expression [4, 7]: 2.26
CYP2D6 gene expression [4, 7]: 2.24
CYP2E1 gene expression [4, 7]: 0
CYP3A4 gene expression [4, 7]: 0.92
U6T1A1 gene expression [4, 7]: 3.86
UGT1A6 gene expression [4, 7]: 1.75
AFP gene expression [4, 8]: 8635.2
ALB gene expression [4, 8]: 5129.36
CYP1A1 gene expression [4, 8]: 80.48
CYP2C9 gene expression [4, 8]: 76.46
CYP2D6 gene expression [4, 8]: 3.51
CYP2E1 gene expression [4, 8]: 0.4
CYP3A4 gene expression [4, 8]: 33.64
U6T1A1 gene expression [4, 8]: 66.36
UGT1A6 gene expression [4, 8]: 23.94

HBV receptor expression ([5]; PHHs treated 72 hours): upregulated
CYP1A2 gene expression [5, 9]: 1.87 transcripts per million
CYP1B1 gene expression [5, 9]: 3.56 transcripts per million
CYP2C9 gene expression [5, 9]: 73.61 transcripts per million
CYP2D6 gene expression [5, 9]: 1.24 transcripts per million
CYP2E1 gene expression [5, 9]: 4.94 transcripts per million
CYP3A4 gene expression [5, 9]: 22.44 transcripts per million
Molecule: O=C(NOC[C@H](O)CO)c1ccc(F)c(F)c1Nc1ccc(I)cc1F [PD0325901]
AFP gene expression [5, 9]: 7.07 transcripts per million
ALB gene expression [5, 9]: 1293.62 transcripts per million
CD81 gene expression [5, 9]: 388.31 transcripts per million
SLCO1B1 gene expression [5, 9]: 151.48 transcripts per million
SLCO1B3 gene expression [5, 9]: 7.24 transcripts per million
UGT1A1 gene expression [5, 9]: 69.02 transcripts per million
UGT1A6 gene expression [5, 9]: 1337.30 transcripts per million
UGT1A9 gene expression [5, 9]: 87.51 transcripts per million
HepG2 viability / cell growth [6]: increased cell death and growth arrest
